Reference: patent US7235263B2, “Processes for controlling microbial organic compound production” (Kimberly-Clark Worldwide, Inc., priority 2001, dated 2007)

Key:
Assay type in all cases: cell-based
[1] = tested on: Proteus mirabilis (ATCC 29906); assay: Bacterial yield of facultatively grown Proteus mirabilis in urine:TSB (from optical density); conditions: Table 7; 10% (w/v) mannitol; facultative
Protocol: Proteus mirabilis (ATCC 29906) were recovered from frozen state by growing the appropriate bacterial coated MicroBank Bead (Pro Lab, Austin Tex.) in 10 mL trypticase soy broth (TSB, Difco, Ann Arbor, Mich.) in a 15 mL sterile loosely tightened screw capped conical tube overnight at 37° C. The tube was held stationary. (E. coli (ATCC 8739), utilized in Example 6 herein, was recovered using the same procedure described herein for Proteus mirabilis). Upon observation of turbidity, the bacterial suspension was checked for purity by isolation plate and Gram stain. Once determined that the isolate was Proteus mirabilis (or E. coli in Example 6), a colony from the isolation plate was transferred to 10 mL of TSB in a 15 mL sterile screw capped conical tube and incubated overnight at 37° C. under facultative conditions. Samples of bacterial suspension resulting from this overnight TSB culture were used to initiate all experiments utilizing Proteus mirabilis bacteria (or E. coli in Example 6).
(§1) Proteus mirabilis was taken from a TSB culture (described in (1) above) and grown under various conditions for use in the Examples. For bacteria to be grown under aerobic conditions, 50 microliters of Proteus mirabilis was taken from a TSB culture prepared as described above and inoculated into a 50 mL volume of a freshly made 9:1 (by volume) pooled adult female urine:TSB mixture into a 250 mL shake flask. This mixture was rotated at 250 rpm at 37° C. overnight to grow the bacteria. For bacteria to be grown under facultative conditions, 10 microliters of Proteus mirabilis was taken from a TSB culture prepared as described above and inoculated into a 10 mL volume of a freshly made 9:1 (by volume) pooled adult female urine:TSB mixture into a 15 mL tube. The tube was loosely fitted with a screw cap, and held stationary at 37° C. overnight to grow the bacteria. For bacteria to be grown under anaerobic conditions, 10 microliters of Proteus mirabilis was taken from a TSB culture prepared as described above and inoculated into a 10 mL volume of a freshly made 9:1 (by volume) pooled adult female urine:TSB mixture into a 15 mL conical tube. The tube was purged with nitrogen and a screw cap tightly closed, and then was held stationary overnight at 37° C. to grow the bacteria.
In this Example, five samples were prepared and analyzed to determine: (1) Bacterial Yield (CFU/mL) calculated from optical density; (3) Percent viability of EPIOCULAR; and (4) EPIOCULAR IL-8. The samples included: (1) Deionized Water; (2) A urine:TSB mixture (9:1 by volume) as described above; (3) A urine:TSB mixture containing Proteus mirabilis bacteria grown under aerobic conditions as described above; (4) A urine:TSB mixture containing Proteus mirabilis bacteria grown under facultative conditions as described above; and (5) A urine:TSB mixture containing Proteus mirabilis bacteria grown under anaerobic conditions as described above.
(§2) In this Example, six different samples were prepared for analysis. The first sample comprised a urine:TSB mixture that was prepared in the same manner as that described in Example 1. […] The tube was loosely fitted with a screw cap, and held stationary at 37° C. overnight to grow the bacteria. […] The fifth sample comprising urine:TSB:Proteus mirabilis (facultatively grown) was prepared in the same manner as that described in Example 1.

Proteus mirabilis = assay: Growth of aerobically cultivated Proteus mirabilis in urine:TSB, microtiter serial dilution, optical density; conditions: for optical density (bacterial cell growth): 48 hours at 37° C., aerobic
Protocol: Proteus mirabilis was cultured in TSB as described in Example 1 and transferred to a urine:TSB mixture (9:1) and incubated under aerobic conditions as described in Example 1. […] In a 96-well microtiter plate with a lid, 150 microliters of each 10% solution was introduced into the first and second columns of the wells. Using a multi-channel pipette, 150 microliters of urine:TSB mixture was introduced into each well except the first column. Beginning at the second column of wells, serial dilutions were made by removing 150 microliters from the second column and transferring it to the third column. The mixture was mixed by pipetting up and down three times. The serial dilutions continued across each column of the plate and, after column 11, 150 microliters was discarded leaving column 12 as the 0% solution. Each well was then inoculated with 1 microliter of Proteus mirabilis, except for the negative control rows. One to three drops of anti-fogging solution was place on the plate lids with a cotton applicator, and allowed to air dry. The mixtures were incubated for 48 hours at 37° C. under aerobic conditions. After incubation of the samples, each was analyzed for bacterial cell growth utilizing the optical density procedure as set forth in Example 1.

[2] = tested on: Proteus mirabilis (ATCC 29906); assay: Ammonia production by facultatively grown Proteus mirabilis in urine:TSB (ammonia probe)
Protocol: as §1
Upon completion of the respective incubation periods of the samples, optical density measurements of each sample were taken as described above and ammonia production of the growth solutions was measured using an ammonia combination probe (Beckman, Fullerton, Calif.) by record mV using an Orion pH meter (Orion, Boston, Mass.). Orion ammonia standards (Orion) were used to calibrate the instrument.
as §2

[3] = Table 7, 10% (w/v) mannitol, facultative

Row | Compound | Bacterial Yields [1] [CFU/mL] | optical density (bacterial cell growth) (Proteus mirabilis; 0.0097% in urine:TSB) | optical density (bacterial cell growth) (Proteus mirabilis; 0.0195% in urine:TSB) | optical density (bacterial cell growth) (Proteus mirabilis; 0.0391% in urine:TSB) | optical density (bacterial cell growth) (Proteus mirabilis; 0.0785% in urine:TSB) | optical density (bacterial cell growth) (Proteus mirabilis; 0.156% in urine:TSB) | optical density (bacterial cell growth) (Proteus mirabilis; 0.313% in urine:TSB) | optical density (bacterial cell growth) (Proteus mirabilis; 0.625% in urine:TSB) | optical density (bacterial cell growth) (Proteus mirabilis; 1.25% in urine:TSB) | optical density (bacterial cell growth) (Proteus mirabilis; 2.5% in urine:TSB) | optical density (bacterial cell growth) (Proteus mirabilis; 5% in urine:TSB) | optical density (bacterial cell growth) (Proteus mirabilis; 10% in urine:TSB) | effect on cell growth (Proteus mirabilis; at elevate concentrations) | effect on cell growth (Proteus mirabilis; at low concentrations) | Ammonia Produced (n = 3) [2, 3] [ppm] | Ammonia/Cell [2, 3] [ppm/10E8CFU] | impact on the production of ammonia in the bacteria ([2]; mannitol in the absence of hydrogen peroxide, 10% (w/v))
1 | OC[C@@H](O)[C@@H](O)[C@H](O)[C@H](O)CO [Mannitol, mannitol, reference compound] | 6.91E+8 | 0.98 | 0.98 | 0.97 | 0.97 | 0.92 | 0.92 | 0.98 | 1.02 | 0.99 | 0.89 | 0.87 | little, if any, effect on cell growth | no effect on cell growth | 621.6 ± 1.8 | 83.8 | does not significantly impact the production of ammonia
2 | mannitol peroxide [3 Hr.] |  | 0.98 | 0.94 | 0.94 | 0.97 | 0.99 | 0.83 | 0.99 | 0.04 | 0.03 | 0.03 | 0.03 |  |  |  |  | 
3 | mannitol peroxide [4.5 Hr.] |  | 0.97 | 0.98 | 0.99 | 0.99 | 0.98 | 0.99 | 0.93 | 0.99 | 0.97 | 0.87 | 0.04 |  |  |  |  | 
4 | mannitol peroxide [24 Hr.] |  | 0.99 | 0.98 | 0.99 | 0.97 | 0.97 | 0.97 | 0.96 | 0.95 | 0.93 | 0.88 | 0.80 |  |  |  |  | 
